From ChEMBL document CHEMBL4043145, “Pyridine-pyrimidine amides that prevent HGF-induced epithelial scattering by two distinct mechanisms” (Bioorg Med Chem Lett, 2017)

Columns and labels:
MDCK-II = experiment: Antimigratory activity against MDCK2 cells assessed as inhibition of HGF-induced cell scattering at 1 uM pretreated for 18 hrs followed by HGF addition measured after 20 to 24 hrs by crystal violet staining-based assay relative to control; format: functional; conditions: Canis lupus familiaris
MCF7 = experiment: Antiproliferative activity against human MCF7 cells at 10 uM relative to control; format: functional, cell-based
A2780 = experiment: Antiproliferative activity against human A2780 cells; format: functional, cell-based
Bos taurus = species: Bos taurus; experiment: (§1) Inhibition of bovine brain tubulin polymerization
[1] = as §1; set-up: species or system Bos taurus

EC50 (MCF7) | EC50 (A2780) | Structure (SMILES) | inhibition at 1 µM (MDCK-II) | further results
– | – | O=C(Nc1ccc2ccccc2n1)c1cccc([N+](=O)[O-])c1 | -59% | –
> 10000 nM | > 10000 nM | O=C(COc1cncnc1)Nc1ccc(-c2ccccc2)cn1 | – | –
– | – | O=C(Nc1ccc(-c2ccccc2)cn1)c1cnc2cccnc2c1 | 181% | –
– | – | O=C(Nc1cscn1)c1cncnc1 | -103% | –
– | – | Cc1ncc(C(=O)Nc2ccc(-c3cccc(OC4CC4)c3)cn2)cn1 | – | inhibition (Bos taurus): Dose-dependent effect; IC50 [1]: 817 nM
– | – | O=C(Nc1ccc2ccccc2n1)c1cncnc1 | -55% | –
– | – | CC[C@]1(O)C[C@H]2CN(CCc3c([nH]c4ccccc34)[C@@](C(=O)OC)(c3cc4c(cc3OC)N(C=O)[C@H]3[C@@](O)(C(=O)OC)[C@H](OC(C)=O)[C@]5(CC)C=CCN6CC[C@]43[C@@H]65)C2)C1 [VINCRISTINE] | – | IC50 [1]: 400 to 684 nM
> 10000 nM | > 10000 nM | O=S(=O)(Nc1ccc(-c2ccccc2)cn1)c1cccnc1 | – | –
– | – | Cc1ncc(C(=O)Nc2ccc(-c3cccc(C4CC4)c3)cn2)cn1 | – | inhibition (Bos taurus): Dose-dependent effect; IC50 [1]: 885 nM
– | – | Cc1cc(NC(=O)c2cccc([N+](=O)[O-])c2)ccc1I | 53.1% | –
– | – | Cc1nc(NC(=O)c2cncnc2)ccc1Cl | -18% | –
651 nM | 612 nM | O=C(Nc1ccc(-c2ccccn2)cn1)c1cncnc1 | – | –
– | – | CCOc1ccc(C(=O)Nc2ccc(I)cn2)cc1[N+](=O)[O-] | 69.9% | –
– | – | Cc1nc(NC(=O)c2cc([N+](=O)[O-])ccc2N2CCOCC2)ccc1I | 31.7% | –
– | – | O=C(Nc1ncc(Br)cc1Br)c1cccc([N+](=O)[O-])c1 | 42.4% | –
– | – | Cc1nc(NC(=O)c2cccc([N+](=O)[O-])c2)cnc1Br | -33% | –
– | – | O=C(Nc1ccc(-c2ccccc2)cn1)c1cnco1 | -10% | –
– | – | O=C(Nc1ncc[nH]1)c1nccs1 | -67% | –
– | – | Cc1nc(NC(=O)c2nccs2)ccc1I | -20% | –
– | – | Cc1nc(NC(=O)c2ccc(N3CCCCC3)c([N+](=O)[O-])c2)ccc1I | 29.4% | –
– | – | O=C(Nc1ccc(-c2ccccc2)cn1)c1cccc([N+](=O)[O-])c1 | 29% | –
– | – | O=C(Nc1ccc2ccccc2n1)c1nccs1 | -51% | –

EC50 (MCF7) | EC50 (A2780) | Structure (SMILES) | inhibition at 1 µM (MDCK-II) | further results
– | – | O=C(Nc1cscn1)c1cccc(C(F)(F)F)c1 | -73% | –
> 10000 nM | > 10000 nM | O=C(Nc1ccc(-c2ccccc2)cn1)c1nccnc1-c1ccccc1 | – | –
– | – | O=C(Nc1ccc(-c2ccccc2)cn1)c1cccc(C(F)(F)F)c1 | -2% | –
– | – | Cc1nc(NC(=O)c2cnco2)cnc1Br | -21% | –
– | – | O=C(Nc1ccc2ccccc2n1)c1cncc([N+](=O)[O-])c1 | -63% | –
776 nM | 464 nM | O=C(Nc1ccc(C2CC2)cn1)c1cncnc1 | – | –
205 nM | 271 nM | O=C(Nc1ccc(-c2ccoc2)cn1)c1cncnc1 | – | –
– | – | Cc1ncc(C(=O)Nc2ccc(-c3cccc(NC4CC4)c3)cn2)cn1 | – | inhibition (Bos taurus): Dose-dependent effect; IC50 [1]: 319 nM
– | – | Cc1nc(NC(=O)c2ccc(N3CCCC3)c([N+](=O)[O-])c2)ccc1I | 44% | –
> 10000 nM | > 10000 nM | CSc1ncncc1C(=O)Nc1ccc(-c2ccccc2)cn1 | – | –
– | – | O=C(Nc1ncc[nH]1)c1cnco1 | -50% | –
– | – | Cc1nc(NC(=O)c2cncc([N+](=O)[O-])c2)ccc1I | 21% | –
– | – | O=C(Nc1ccc(-c2cccc(C3CC3)c2)cn1)c1cncnc1 | – | inhibition (Bos taurus): Dose-dependent effect; IC50 [1]: 1030 nM
– | – | O=C(Nc1ccc(-c2ccccc2)cn1)c1nccs1 | -13% | –
> 10000 nM | > 10000 nM | O=C(Nc1ccc(-c2ccc(Cl)cc2)cn1)c1cncnc1 | – | –
– | – | O=C(Nc1ccc2ccccc2n1)c1cnco1 | -58% | –
– | – | Cc1cc(C)nc(NC(=O)c2cccc([N+](=O)[O-])c2)c1 | 52.5% | –
– | – | Cc1nc(NC(=O)c2cccc(C(F)(F)F)c2)cnc1Br | -6% | –
– | – | Cc1cc(NC(=O)c2cccc([N+](=O)[O-])c2)ccc1O | 34.6% | –
8330 nM | > 10000 nM | O=C(Nc1cnc(-c2ccccc2)cn1)c1cncnc1 | – | –
– | – | Cc1ccc(C(=O)Nc2ccc(-c3cccc(C4CCO4)c3)cn2)cn1 (stereo unspecified) | – | inhibition (Bos taurus): Dose-dependent effect; IC50 [1]: 295 nM
127 nM | 255 nM | O=C(Nc1ccc(-c2ccccc2Cl)cn1)c1cncnc1 | – | –

EC50 (MCF7) | EC50 (A2780) | Structure (SMILES) | inhibition at 1 µM (MDCK-II) | further results
– | – | O=C(Nc1ccc2ccccc2n1)c1cccc(C(F)(F)F)c1 | -59% | –
220 nM | 78 nM | O=C(Nc1ccc(-c2ccccc2)cn1)c1cccnc1 | – | –
6970 nM | 5920 nM | O=C(Nc1ccc(-c2cccnc2)cn1)c1cncnc1 | – | –
317 nM | 102 nM | O=C(Nc1ccc(-c2ccccc2)cn1)c1cnccn1 | – | –
– | – | CCOc1ccc(C(=O)Nc2cccc(C)n2)cc1[N+](=O)[O-] | 31.7% | –
149 nM | 49 nM | CNc1ncc(C(=O)Nc2ccc(-c3ccccc3)cn2)cn1 | – | –
> 10000 nM | > 10000 nM | Cc1ncncc1C(=O)Nc1ccc(-c2ccccc2)cn1 | – | –
– | – | Cc1nc(NC(=O)c2cccc([N+](=O)[O-])c2)ccc1Cl | -5% | –
> 10000 nM | > 10000 nM | CN(C(=O)c1cnccn1)c1ccc(-c2ccccc2)cn1 | – | –
– | – | O=C(Nc1ncc[nH]1)c1cccc([N+](=O)[O-])c1 | -77% | –
> 10000 nM | > 10000 nM | O=C(Nc1ccc(-c2ccccc2)cn1)c1ncccn1 | – | –
605 nM | 196 nM | O=C(Nc1ccc(-c2ccco2)cn1)c1cncnc1 | – | –
– | – | Cc1nc(NC(=O)c2cccc([N+](=O)[O-])c2)ccc1Br | 88.6% | –
– | – | Cc1nc(NC(=O)c2cncc([N+](=O)[O-])c2)cnc1Br | -26% | –
272 nM | 68 nM | O=C(Nc1ncc(-c2ccccc2)cn1)c1cncnc1 | – | –
– | – | Cc1nc(NC(=O)c2cncc([N+](=O)[O-])c2)ccc1Cl | -20% | –
– | – | Cc1nc(NC(=O)c2nccs2)cnc1Br | -36% | –
– | – | Cc1nc(NC(=O)c2nccs2)ccc1Cl | -28% | –
> 10000 nM | > 10000 nM | O=C(Nc1ccc(-c2ccccc2)cn1)c1cncnc1-c1ccccc1 | – | –
– | – | O=C(Nc1ccc2ccccc2n1)c1cnc2cccnc2c1 | -69% | –
– | – | Cc1cc(NC(=O)c2cccc([N+](=O)[O-])c2C)c(C)cc1I | 36.1% | –
– | – | Cc1cc(NC(=O)c2ccc(C)c([N+](=O)[O-])c2)c(C)cc1I | 46.9% | –

EC50 (MCF7) | EC50 (A2780) | Structure (SMILES) | inhibition at 1 µM (MDCK-II) | further results
– | – | O=C(Nc1ccc(-c2ccccc2)cn1)c1cncc([N+](=O)[O-])c1 | -32% | –
– | – | Cc1nc(NC(=O)c2cnc3cccnc3c2)cnc1Br | -25% | –
> 10000 nM | > 10000 nM | O=C(Nc1cncnc1)c1ccc(-c2ccccc2)cn1 | – | –
– | – | O=C(Nc1ccccn1)c1cccc([N+](=O)[O-])c1 | 45.3% | –
– | – | Cc1nc(NC(=O)c2cnco2)ccc1I | 32% | –
– | – | O=C(Nc1ncc[nH]1)c1cccc(C(F)(F)F)c1 | -72% | –
– | – | Cc1nc(NC(=O)c2cnc3cccnc3c2)ccc1I | 33% | –
– | – | Cc1nc(NC(=O)c2cccc(C(F)(F)F)c2)ccc1Cl | -13% | –
> 10000 nM | 4680 nM | O=C(Nc1ccc(-c2ccncc2)cn1)c1cncnc1 | – | –
– | – | O=C(Nc1cscn1)c1cnco1 | -54% | –
– | – | Cc1nc(NC(=O)c2cncnc2)cnc1Br | -42% | –
109 nM | 29 nM | Cc1ncc(C(=O)Nc2ccc(-c3ccccc3)cn2)cn1 | – | –
> 10000 nM | 1530 nM | O=C(Nc1ccc(-c2ccccc2)cn1)c1cnc(-c2ccco2)nc1 | – | –
> 10000 nM | > 10000 nM | O=C(Nc1ccc(-c2ccccc2)cc1)c1cncnc1 | – | –
– | – | Cc1nc(NC(=O)c2cccc(C(F)(F)F)c2)ccc1I | 72% | –
> 10000 nM | > 10000 nM | O=C(Cc1cncnc1)Nc1ccc(-c2ccccc2)cn1 | – | –
– | – | Cc1nc(NC(=O)c2cnc3cccnc3c2)ccc1Cl | 12% | –
> 10000 nM | > 10000 nM | O=C(Nc1ccc(-c2ccccc2)cn1)c1ccncn1 | – | –
– | – | Cc1nc(NC(=O)c2cnco2)ccc1Cl | -35% | –
66 nM | 60 nM | O=C(Nc1ccc(-c2ccsc2)cn1)c1cncnc1 | – | –

Structure (SMILES) | EC50 (MCF7) | EC50 (A2780) | inhibition at 1 µM (MDCK-II) | further results
c1ccc(-c2ccc(NCc3cncnc3)nc2)cc1 | > 10000 nM | > 10000 nM | – | –
